The target in experiment [1] is T1, Langerin extracellular domain (ECD) (Homo sapiens, UniProt Q9UJ71).
T1 construct: the trimeric Langerin extracellular domain (ECD) was expressed insolubly in E; made in house
The experiment is described as follows: 19F R2-filtered NMR reporter displacement assay with Langerin. Format: binding. Particulars: calculated utilizing the KI value determined for 21. On the procedure:
(§1) Receptor Expression and Purification
General remarks. Codon-optimized genes for the expression of Langerin and DC-SIGN in E. coli were purchased from GenScript and Life Technologies, respectively. All growth media or chemicals used for receptor expression and purification were purchased from Carl Roth if not stated otherwise.
Langerin extracellular domain. Expression and purification were conducted as previously published14. Briefly, the trimeric Langerin extracellular domain (ECD) was expressed insolubly in E. coli BL21* (DE3) (Invitrogen). Following enzymatic cell lysis, inclusion bodies were harvested and subsequently solubilized. The sample was centrifuged and the Langerin ECD was refolded overnight via rapid dilution. Next, the sample was dialyzed overnight, centrifuged and purified via mannan-agarose affinity chromatography (Sigma Aldrich). For 19F R2-filtered NMR and lipid-enzyme-linked lectin assay (Lipid-ELLA) experiments, the buffer was exchanged to 25 mM Tris with 150 mM NaCl and 5 mM CaCl2 at pH 7.8 using 7 kDa size-exclusion desalting columns (Thermo Scientific). For […]
D2O, 150 mM NaCl and 5 mM CaCl2 at pH 7. The concentration of Langerin ECD was determined via UV spectroscopy (A280, 0.1% = 2.45). Purity and monodispersity of Langerin ECD samples were analyzed via SDS PAGE and DLS. […]
General remarks. 19F R2-filtered NMR experiments were conducted on a PremiumCompact 600 MHz spectrometer (Agilent). Spectra were processed in MestReNova and data analysis was performed with OriginPro 13, 15. Experiments with the Langerin ECD were performed at a receptor concentration of 50 μM in 25 mM Tris with 10% D2O, 150 mM NaCl and 5 mM CaCl2 at pH 7.8 and 25° C. […]
10% D2O, 150 mM NaCl and 5 mM CaCl2 at pH 7.0 and 25°C. TFA served as an internal reference at a concentration of 50 μM. Apparent relaxation rates R2,obs for the reporter ligand were determined using the CPMG pulse sequence as previously published3-5. […]
KI determination. KI values were determined as previously published for Langerin3. Briefly, titration experiments were conducted at a concentration of 0.1 mM of reporter ligand 24 at five competitor concentrations [I]T. Samples were prepared via serial dilution. For the acids GlcNS, GlcNAc-6-OS and GlcNS-6-OS the pH values were monitored and adjusted to 7.8 if necessary.
General remarks. 15N HSQC NMR experiments were conducted on an Ascend 700 MHz spectrometer (Bruker)16. Spectra were processed in NMRPipe17. Data analysis was performed using CCPN Analysis, MatLab and OriginPro15, 18-19. Experiments with the Langerin CRD were performed at a receptor concentration of 100 μM in 25 mM HEPES with 10% D 2O, 150 mM NaCl and 5 mM CaCl2 at pH 7.8 and 25° C. DSS-d6 served as an internal reference at a concentration of 100 μM. Spectra were referenced via the internal spectrometer reference. Spectra were acquired with 128 increments and 32 scans per increments for 150 μl samples in 3 mm sample tubes. The relaxation delay d1 was set to 1.4 s and the acquisition time tacq was set to 100 ms. The W5 Watergate pulse sequence was used for solvent suppression20. The used resonance assignment for the Langerin CRD has been published […]
KD determination. KD values were determined in titration experiments at six ligand concentrations [L]T. Samples were prepared via serial dilution. Chemical shift perturbations CSPs for Langerin CRD resonances in the fast or fast-to-intermediate exchange regime observed upon titration with ligand were calculated via Equation 121.

The target in experiment [2] is T2, DC-SIGN CRD (Homo sapiens, UniProt Q9NNX6).
T2 construct: with the DC-SIGN CRD were performed at a receptor concentration of 50 μM; made in house
T2 sequence (Q9NNX6 263-378 limits assumed): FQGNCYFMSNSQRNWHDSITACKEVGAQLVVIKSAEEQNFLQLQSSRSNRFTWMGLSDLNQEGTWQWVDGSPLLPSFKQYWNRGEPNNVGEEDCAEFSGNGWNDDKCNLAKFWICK
The experiment is described as follows: 19F R2-filtered NMR reporter displacement assay with DC-SIGN. In kind it is binding.
Description: Figure S7. 19F R2-filtered NMR assay development with DC-SIGN. […]
substantial line broadeni ng. This phenomenon was utilized to develop the 19F R2-filtered NMR reporter displacement assay following the procedure previously published for Langerin 3. The spectrum in absence of DC -SIGN is processed with an exponential apodization function at 1.8 Hz. b. The interaction between 24 and DC-SIGN was quantified via the transversal relaxation rate R2,obs using the CPMG pulse sequence4-5. Representative decay curves in the presence of DC-SIGN are shown. c. The Ca2+-dependency of the interaction was validated via addition of EDTA. The R2,obs value in absence of DC-SIGN was determined from four independent experiments. The standard error for the experiments in presence of DC-SIGN and EDTA is derived directly from the fitting procedure. d. Relaxation dispersion experiments for 24 in presence of DC-SIGN indicate at negligible exchange contribution R2,ex at a νCPMG value of 500 Hz. In contrast to Langerin, a considerable exchange contribution is observed a lower νCPMG values. e. A representative binding isotherm for the affinity determination for 24 is shown. The KD value was determined from three independent titrations. The obtained K D and additional parameters from the fitting procedure are given in Tab le S3.
(1 picture or pasted object on this page, not shown here)
as §1
General remarks. Codon-optimized genes for the expression of Langerin and DC-SIGN in E. coli were purchased from GenScript and Life Technologies, respectively. All growth media or chemicals used for receptor expression and purification were purchased from Carl Roth if not stated otherwise. […]
Langerin and DC-SIGN carbohydrate recognition domain. Expression and purification were conducted as previously published14. Briefly, the monomeric 15N-labeled Langerin and DC-SIGN carbohydrate recognition domains (CRDs) were expressed insolubly in E. coli BL21* (DE3) (Invitrogen). Following enzymatic cell lysis, inclusion bodies were harvested and subsequently solubilized. The sample was centrifuged and the Langerin and DC-SIGN CRDs were refolded overnight via rapid dilution. Next, the sample was dialyzed overnight, centrifuged and purified via StrepTactin affinity chromatography (Iba). After an additional dialysis step overnight, the sample was centrifuged and the buffer was exchanged to 25 mM HEPES with 150 mM NaCl at pH 7.0 using 7 kDa size-exclusion desalting columns (Thermo Scientific) for 19F R2-filtered and 15N HSQC NMR experiments. The concentration of Langerin and DC -SIGN CRDs was determined via UV spectroscopy (A280, 0.1% = 3.19 and A280, 0.1% = 2.98). Purity and monodispersity of Langerin and DC - SIGN CRD samples were analyzed via SDS PAGE and DLS.
General remarks. 19F R2-filtered NMR experiments were conducted on a PremiumCompact 600 MHz spectrometer (Agilent). Spectra were processed in MestReNova and data analysis was performed with OriginPro 13, 15. Experiments with the Langerin ECD were performed at a receptor concentration of 50 μM in 25 mM Tris with 10% D2O, 150 mM NaCl and 5 mM CaCl2 at pH 7.8 and 25° C. Experiments […]
with the DC-SIGN CRD were performed at a receptor concentration of 50 μM in 25 mM HEPES with 10% D2O, 150 mM NaCl and 5 mM CaCl2 at pH 7.0 and 25°C. TFA served as an internal reference at a concentration of 50 μM. Apparent relaxation rates R2,obs for the reporter ligand were determined using the CPMG pulse sequence as previously published3-5.
Assay development for DC-SIGN. The 19F R2-filtered NMR reporter displacement assay for DC-SIGN was developed following the procedure previously published for Langerin3. Briefly, the KD value and the relaxation rate in bound state R2,b were determined at five concentrations [L]T of reporter ligand 24 in three independent titration experiments. Samples were prepared via serial dilution. The addition of 10 mM EDTA served to validate the Ca2+-dependency of the interaction between DC-SIGN and the reporter ligand. […]

For experiment [3], the target named is T1, Langerin extracellular domain (ECD). The arrangement: method as in PMID 27458873. Particulars: 19F R2-filtered NMR; previously published value; cited from earlier work.
Experiment [4] has as its target T3, Langerin CRD (Homo sapiens, UniProt Q9UJ71).
T3 construct: Experiments with the Langerin CRD were performed at; made in house
The arrangement: method as in PMID 27458873. The settings on record: previously published value; cited from earlier work.

SMILES strings stand for the structures.

T1 sequence (Q9UJ71 65-328 limits assumed): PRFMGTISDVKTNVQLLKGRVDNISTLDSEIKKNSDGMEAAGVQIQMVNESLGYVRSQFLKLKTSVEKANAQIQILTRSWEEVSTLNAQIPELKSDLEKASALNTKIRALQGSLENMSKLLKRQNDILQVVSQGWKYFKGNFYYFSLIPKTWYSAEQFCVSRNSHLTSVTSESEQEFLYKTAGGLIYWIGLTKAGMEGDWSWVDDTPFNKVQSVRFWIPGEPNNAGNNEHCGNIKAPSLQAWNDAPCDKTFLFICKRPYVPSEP
T3 sequence (Q9UJ71 202-320 limits assumed): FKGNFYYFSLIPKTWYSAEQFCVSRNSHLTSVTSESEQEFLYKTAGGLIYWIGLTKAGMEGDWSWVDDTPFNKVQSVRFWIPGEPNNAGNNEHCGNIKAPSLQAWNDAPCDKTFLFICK

By Ki is commonly meant a dissociation constant, usually derived from enzyme kinetics or from competition with a known ligand. As a reminder, the Kd is the concentration at which binding is half-saturated. `OC[C@H]1OC(O)[C@@H](O)[C@@H](O)[C@@H]1O` (some centres unmarked) [Man, mannose]: the “Relative potency, Langerin” value in experiment [1] is on record as 2.2. In addition, the Ki in experiment [2] (19F R2-filtered NMR, DC-SIGN CRD, pH 7.0, 25 °C) was 3 ± 0.3 mM; in experiment [3], 4.5 ± 0.5 mM. In experiment [2] (Table 1, Langerin against DC-SIGN, from KI values), this compound returned a specificity of 0.67. Further, in experiment [4], the Kd was 6.5 ± 0.2 mM.

The values are drawn from publication PMC6535779, “A Specific, Glycomimetic Langerin Ligand for Human Langerhans Cell Targeting” (ACS Central Science, 2019).
